The results in this text go back to ChEMBL document CHEMBL1201862, “PubChem BioAssay data set” (2004).

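Grown in 96-well plates, cells were treated for 48 hours with each compound at five concentrations. Insufficient inhibition: endpoint recorded as highest concentration tested. The concentration for 50% growth inhibition is given as GI50.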 Active and inactive are the calls of the source. Rule as the data show it: active = GI50 up to about 1.1 µM and inactive = higher.

Among the test systems are CAKI-1; HCC 2998; HCT-15; HL-60; HOP-92; HT-29; IGROV-1; MCF7; MDA-MB-231; NCI-H460; OVCAR-5; PC-3; RPMI-8226; SF-268; SF-295; SNB-19; SR; SW-620; T47D; U-251.
Common to all, as to test: NCI tumour cell line growth inhibition, 48 h

Consider `c1ccc(SCCc2ccncc2)cc1`, for which the GI50 is 53 µM (inactive) with CAKI-1; > 100 µM (inactive) with HCC 2998; over 100 µM in the test on HCT-15; 50.6 µM (inactive) with HL-60; 45.7 µM (inactive) in the test with HOP-92; > 100 µM (inactive) in the test with HT-29. Besides, the GI50 was > 100 µM (inactive) in the test on IGROV-1; 91.4 µM (inactive) in the test on MCF7; > 100 µM (inactive) in the test on MDA-MB-231; > 100 µM (inactive) in the test on NCI-H460; > 100 µM (inactive) in the test on OVCAR-5; > 100 µM (inactive) in the test on PC-3. Besides, the GI50 is 20.5 µM (inactive) in the test on RPMI-8226; > 100 µM (inactive) in the test on SF-268; 39.5 µM (inactive) in the test on SF-295; > 100 µM (inactive) with SNB-19; 19.3 µM (inactive) with SR; > 100 µM (inactive) in the test on SW-620. The GI50 with T47D was 52.1 µM (inactive); in the test with U-251, > 100 µM (inactive).
`COc1cccc(-c2cc(O)c3cc(N4CCCC4)ccc3n2)c1`: the GI50 was < 0.001 µM (active) with CAKI-1; 0.00206 µM (active) with HCC 2998; 0.00169 µM in the test with HCT-15; < 0.001 µM (active) in the test on HL-60; 0.00112 µM (active) in the test with HOP-92; < 0.001 µM (active) with HT-29. For the same molecule, the GI50 with IGROV-1 was 0.005 µM (active); in the test on MCF7, 0.0394 µM (active); with MDA-MB-231, 0.00155 µM (active); in the test on NCI-H460, < 0.001 µM (active); in the test on OVCAR-5, 0.00328 µM (active); in the test on PC-3, < 0.001 µM (active). For the same molecule, the GI50 with RPMI-8226, in the test with SF-268, in the test with SF-295, in the test with SNB-19, with SR and with SW-620 was < 0.001 µM (active) throughout. Moreover, the GI50 is > 10 µM (inactive) with T47D and < 0.001 µM (active) with U-251.
On to `CCOC(=O)c1c(N2CCCC2)[nH]c(=O)c(C(c2ccco2)c2c(O)c(C(=O)OCC)c(N3CCCC3)[nH]c2=O)c1O`, for which the GI50 is > 100 µM (inactive) with CAKI-1; > 100 µM (inactive) in the test on HCC 2998; over 100 µM in the test with HCT-15; > 100 µM (inactive) in the test with HL-60; > 100 µM (inactive) with HOP-92; > 100 µM (inactive) in the test with HT-29. For the same molecule, the GI50 with MCF7 is > 100 µM (inactive); in the test with MDA-MB-231, > 100 µM (inactive); in the test with NCI-H460, > 100 µM (inactive); in the test on OVCAR-5, 67.9 µM (inactive); with PC-3 it was > 100 µM (inactive); in the test on RPMI-8226, 84.3 µM (inactive). Further, the GI50 is 85.3 µM (inactive) in the test with SF-268; 40.3 µM (inactive) with SF-295; 38.7 µM (inactive) in the test on SNB-19; > 100 µM (inactive) in the test on SR; > 100 µM (inactive) with SW-620; 19.4 µM (inactive) in the test on T47D. In the test on U-251, the GI50 was 73.8 µM (inactive).
As for `COC(=O)c1c(OC(C)=O)ccc2c1c1c(OC(C)=O)c3ccccc3c(OC(C)=O)c1n2Cc1ccccc1`, the GI50 in the test with CAKI-1 was 9.62 µM (inactive); in the test on HCC 2998, 1.85 µM (inactive); with HCT-15, 4.78 µM; with HL-60 it was 3.33 µM (inactive); with HOP-92, 0.658 µM (active); in the test on HT-29 it was 12.2 µM (inactive). Also, the GI50 with IGROV-1 is 4.09 µM (inactive); in the test on MCF7, 13.5 µM (inactive); in the test with MDA-MB-231, 4.09 µM (inactive); in the test with NCI-H460, 2.24 µM (inactive); in the test on OVCAR-5, 7.46 µM (inactive); with PC-3, 1.55 µM (inactive). In addition, the GI50 in the test on RPMI-8226 was 1.52 µM (inactive); in the test on SF-268, 3.44 µM (inactive); with SF-295, 2.55 µM (inactive); in the test with SNB-19 it was 9.51 µM (inactive); in the test on SR it was 1.64 µM (inactive); with T47D, 1.16 µM (inactive). Besides, the GI50 in the test on U-251 is 2.43 µM (inactive).
Consider `CCc1nc2cc(/N=N/c3c(O)ccc4ccccc34)ccc2[nH]1`, for which the GI50 in the test on CAKI-1 is 22.4 µM (inactive); in the test on HCC 2998, 14.6 µM (inactive); in the test on HCT-15 it was 12.6 µM; in the test with HL-60, 2.4 µM (inactive); in the test with HOP-92, 20.5 µM (inactive); in the test on HT-29, 19.4 µM (inactive). Moreover, the GI50 in the test with IGROV-1 is 19.6 µM (inactive); in the test on MCF7, 18.4 µM (inactive); in the test with MDA-MB-231, 20.7 µM (inactive); in the test with NCI-H460, 16.1 µM (inactive); with OVCAR-5, 17.5 µM (inactive); in the test with PC-3, 14.6 µM (inactive). Also, the GI50 in the test with RPMI-8226 is 10.5 µM (inactive); in the test with SF-268, 22.2 µM (inactive); with SF-295, 20.8 µM (inactive); with SNB-19 it was 31.3 µM (inactive); in the test with SR, 2.14 µM (inactive); with SW-620, 22.5 µM (inactive). The GI50 with T47D is 24.3 µM (inactive); in the test on U-251, 16 µM (inactive).
As to `CC(C)(Cc1ccccc1)NC1=NCCO1`, the GI50 in the test on CAKI-1 is > 100 µM (inactive); in the test with HCC 2998, > 100 µM (inactive); in the test on HCT-15 it was over 100 µM; in the test on HL-60, > 100 µM (inactive); in the test on HOP-92, > 100 µM (inactive); in the test on HT-29, > 100 µM (inactive). Moreover, the GI50 with IGROV-1, in the test on MCF7, in the test with MDA-MB-231, in the test with NCI-H460, with OVCAR-5 and in the test on PC-3 was > 100 µM (inactive) each time. The GI50 in the test on RPMI-8226 is > 100 µM (inactive); in the test on SF-295, > 100 µM (inactive); in the test on SNB-19 it was > 100 µM (inactive); in the test with SR it was > 100 µM (inactive); in the test on SW-620, > 100 µM (inactive); in the test with T47D it was > 10 µM (inactive). In addition, the GI50 with U-251 is > 100 µM (inactive).
Regarding `CC1(C)OC2C(CO)OC(n3cnc(N)nc3=O)C2O1` (stereo not given), the GI50 with CAKI-1 was > 100 µM (inactive); in the test on HCC 2998 it was > 100 µM (inactive); in the test with HCT-15, over 100 µM; with HL-60, > 100 µM (inactive); in the test on HOP-92, > 100 µM (inactive); in the test on IGROV-1, > 100 µM (inactive). The GI50 in the test on MCF7, with MDA-MB-231, in the test with NCI-H460, with OVCAR-5, in the test with PC-3 and in the test with RPMI-8226 was > 100 µM (inactive) in each case. Also, the GI50 in the test with SF-268, with SF-295, with SNB-19, in the test with SR, in the test with SW-620 and with T47D was > 100 µM (inactive) each time. In addition, the GI50 in the test with U-251 was > 100 µM (inactive).
On to `COc1ccc(/C=c2\c(=O)[nH]c3nc4ccccc4c(=O)n23)cc1`, for which the GI50 in the test with CAKI-1 is 55.8 µM (inactive); with HCC 2998 it was 80.5 µM (inactive); in the test with HCT-15 it was 64 µM; in the test with HL-60 it was 36.2 µM (inactive); in the test on HOP-92, 64.7 µM (inactive); in the test with HT-29 it was 69.8 µM (inactive). The GI50 is 68.4 µM (inactive) in the test on IGROV-1; 49.9 µM (inactive) with MCF7; > 100 µM (inactive) in the test with MDA-MB-231; > 100 µM (inactive) with OVCAR-5; > 100 µM (inactive) in the test on PC-3; 58.3 µM (inactive) in the test with RPMI-8226. The GI50 is > 100 µM (inactive) in the test with SF-268; > 100 µM (inactive) with SF-295; > 100 µM (inactive) in the test on SNB-19; 48.2 µM (inactive) in the test with SR; 36.1 µM (inactive) in the test with SW-620; 36.5 µM (inactive) with T47D. Further, the GI50 with U-251 is > 100 µM (inactive).
